Measured values taken from ChEMBL document CHEMBL1201862, “PubChem BioAssay data set” (2004).
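Method: 48-hour compound exposure of cells in 96-well plates, five concentrations, linear interpolation of endpoints. GI50 is the concentration that inhibits growth by half.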 The source made the active and inactive calls. No stated cut-off is given here; in the data, active = GI50 up to about 1.1 µM and inactive = higher.

Columns and labels:
Assay in all cases: DTP human tumour cell line panel, 48 h
HL-60 = system: HL-60
EKVX = system: EKVX
U-251 = system: U-251
OVCAR-5 = system: OVCAR-5
786-0 = system: 786-0
HOP-62 = system: HOP-62
SNB-75 = system: SNB-75
BT-549 = system: BT-549
Malme-3M = system: Malme-3M
RPMI-8226 = system: RPMI-8226
LOX IMVI = system: LOX IMVI
SK-MEL-5 = system: SK-MEL-5
HCC 2998 = system: HCC 2998
TK-10 = system: TK-10
OVCAR-3 = system: OVCAR-3
IGROV-1 = system: IGROV-1
MDA-MB-435 = system: MDA-MB-435
PC-3 = system: PC-3
MDA-N = system: MDA-N
KM12 = system: KM12

Measured: GI50

N#C/C(N)=C(C#N)/N=C/Nc1ccc(N)cc1
inactive: HL-60 30.3 µM | EKVX > 100 µM | U-251 > 100 µM | OVCAR-5 > 100 µM | 786-0 > 100 µM | HOP-62 > 100 µM | SNB-75 > 100 µM | BT-549 > 100 µM | Malme-3M > 100 µM | RPMI-8226 > 100 µM | LOX IMVI > 100 µM | SK-MEL-5 29.2 µM | HCC 2998 > 100 µM | TK-10 > 100 µM | OVCAR-3 > 100 µM | IGROV-1 > 100 µM | MDA-MB-435 > 100 µM | PC-3 > 100 µM | MDA-N > 100 µM | KM12 > 100 µM

COc1ccc(/C=C/C(=O)c2cc(CN(C)C)c(O)c(CN(C)C)c2)cc1
inactive: HL-60 22.9 µM | EKVX 49.8 µM | U-251 48.1 µM | OVCAR-5 > 100 µM | 786-0 74 µM | HOP-62 21.8 µM | SNB-75 19 µM | BT-549 27.9 µM | Malme-3M 25.2 µM | RPMI-8226 21.8 µM | LOX IMVI 14.2 µM | SK-MEL-5 16.2 µM | HCC 2998 > 10 µM | TK-10 40.6 µM | OVCAR-3 18 µM | IGROV-1 37 µM | MDA-MB-435 44 µM | PC-3 23.9 µM | MDA-N 21.2 µM | KM12 17.7 µM

N/C(=N\c1ccccc1Cl)c1ccccc1N
inactive: HL-60 > 100 µM | EKVX > 100 µM | U-251 > 100 µM | OVCAR-5 > 100 µM | 786-0 > 100 µM | HOP-62 > 100 µM | SNB-75 95.5 µM | BT-549 > 100 µM | Malme-3M > 100 µM | RPMI-8226 > 100 µM | LOX IMVI > 100 µM | SK-MEL-5 > 100 µM | HCC 2998 > 100 µM | TK-10 > 100 µM | OVCAR-3 > 100 µM | IGROV-1 45.8 µM | MDA-MB-435 > 100 µM | PC-3 > 100 µM | MDA-N > 100 µM | KM12 > 100 µM

C=C(CCOC)CCC1CCCCC/C1=N\N(C)C (stereo not drawn)
inactive: HL-60 > 100 µM | EKVX > 100 µM | U-251 > 100 µM | OVCAR-5 > 100 µM | 786-0 > 100 µM | HOP-62 > 100 µM | SNB-75 > 100 µM | BT-549 > 100 µM | Malme-3M > 100 µM | RPMI-8226 > 100 µM | LOX IMVI > 100 µM | SK-MEL-5 > 100 µM | HCC 2998 > 100 µM | OVCAR-3 > 100 µM | IGROV-1 > 100 µM | MDA-MB-435 > 100 µM | PC-3 > 100 µM | MDA-N > 100 µM | KM12 > 100 µM

OC(c1ccc2c(c1)OCO2)c1ccc2c(c1)OCO2
inactive: HL-60 > 100 µM | EKVX > 100 µM | U-251 > 100 µM | OVCAR-5 > 100 µM | 786-0 > 100 µM | HOP-62 > 100 µM | SNB-75 80.4 µM | BT-549 > 100 µM | Malme-3M > 100 µM | RPMI-8226 > 100 µM | LOX IMVI > 100 µM | SK-MEL-5 > 100 µM | HCC 2998 > 100 µM | TK-10 > 100 µM | OVCAR-3 > 100 µM | IGROV-1 > 100 µM | MDA-MB-435 > 100 µM | PC-3 > 100 µM | MDA-N > 100 µM | KM12 > 100 µM

N#CCCN(CCCCN(CCC#N)C(=O)Nc1ccccc1)C(=O)Nc1ccccc1
inactive: HL-60 > 100 µM | EKVX > 100 µM | U-251 > 100 µM | OVCAR-5 > 100 µM | 786-0 > 100 µM | HOP-62 > 100 µM | SNB-75 15.5 µM | BT-549 > 100 µM | Malme-3M > 100 µM | RPMI-8226 > 100 µM | LOX IMVI > 100 µM | SK-MEL-5 > 100 µM | HCC 2998 > 100 µM | OVCAR-3 > 100 µM | IGROV-1 > 100 µM | MDA-MB-435 > 100 µM | PC-3 > 100 µM | MDA-N > 100 µM | KM12 > 100 µM

CCCNc1ncnc2[nH]ncc12
inactive: HL-60 > 100 µM | EKVX > 100 µM | U-251 > 100 µM | OVCAR-5 > 100 µM | 786-0 > 100 µM | HOP-62 > 100 µM | SNB-75 > 100 µM | BT-549 > 100 µM | Malme-3M > 100 µM | RPMI-8226 > 100 µM | LOX IMVI > 100 µM | SK-MEL-5 > 100 µM | HCC 2998 > 100 µM | TK-10 > 100 µM | OVCAR-3 > 100 µM | IGROV-1 > 100 µM | MDA-MB-435 > 100 µM | PC-3 > 100 µM | MDA-N > 100 µM | KM12 > 100 µM

COc1cccc(/C=N/C(/N=C/c2cccc(OC)c2O)c2cccc(OC)c2O)c1O
inactive: HL-60 25.9 µM | EKVX 19.2 µM | U-251 15.6 µM | OVCAR-5 22 µM | 786-0 23.3 µM | HOP-62 29.4 µM | SNB-75 13.9 µM | BT-549 19.6 µM | RPMI-8226 22 µM | LOX IMVI 10.5 µM | SK-MEL-5 15 µM | HCC 2998 18.8 µM | TK-10 15.7 µM | OVCAR-3 11.7 µM | IGROV-1 21.7 µM | MDA-MB-435 28.3 µM | PC-3 26 µM | MDA-N 26.4 µM | KM12 22.6 µM

Cc1c(/N=N/c2ccccc2)c(C)n(C2OC(CO)C(O)C(O)C2O)c(=S)c1C#N (stereo not drawn)
inactive: HL-60 34.1 µM | U-251 23.2 µM | OVCAR-5 15.1 µM | 786-0 31.6 µM | HOP-62 25.5 µM | SNB-75 42.2 µM | BT-549 19.9 µM | Malme-3M 32.6 µM | RPMI-8226 40.2 µM | LOX IMVI 22.6 µM | SK-MEL-5 12.3 µM | HCC 2998 21.8 µM | TK-10 27 µM | OVCAR-3 21.6 µM | IGROV-1 37.7 µM | MDA-MB-435 13.1 µM | PC-3 24 µM | MDA-N 19.9 µM | KM12 33.5 µM

O=c1/c(=C\c2ccccc2)sc2n1C(c1ccccc1)C1(O)CCCCC1N=2 (stereo not drawn)
inactive: HL-60 36 µM | U-251 > 100 µM | OVCAR-5 > 100 µM | 786-0 > 100 µM | HOP-62 > 100 µM | SNB-75 > 100 µM | BT-549 > 100 µM | Malme-3M > 100 µM | RPMI-8226 59.8 µM | LOX IMVI > 100 µM | SK-MEL-5 > 100 µM | HCC 2998 67.1 µM | TK-10 > 100 µM | OVCAR-3 > 100 µM | IGROV-1 > 100 µM | MDA-MB-435 > 100 µM | PC-3 69.7 µM | MDA-N > 100 µM

Cc1ccc(C)c2c1NC(=O)/C2=N\Nc1ccccc1[N+](=O)[O-]
inactive: HL-60 > 100 µM | EKVX > 100 µM | U-251 85.5 µM | OVCAR-5 > 100 µM | 786-0 61.5 µM | HOP-62 55.8 µM | SNB-75 > 100 µM | BT-549 > 100 µM | RPMI-8226 > 100 µM | LOX IMVI > 100 µM | SK-MEL-5 > 100 µM | HCC 2998 > 100 µM | TK-10 > 100 µM | OVCAR-3 > 100 µM | IGROV-1 10.7 µM | MDA-MB-435 > 100 µM | PC-3 > 100 µM | MDA-N > 100 µM | KM12 > 100 µM

Oc1cc(O)c2c(c1)O[C@H](c1cc(O)c(O)c(O)c1)[C@H](O)C2 [EPIGALLOCATECHIN]
inactive: HL-60 19.5 µM | EKVX > 10 µM | U-251 16.4 µM | OVCAR-5 15.6 µM | 786-0 18.2 µM | HOP-62 19.7 µM | SNB-75 31.6 µM | BT-549 19.2 µM | Malme-3M > 100 µM | RPMI-8226 13.8 µM | LOX IMVI 27.9 µM | SK-MEL-5 16.9 µM | HCC 2998 > 10 µM | OVCAR-3 47 µM | IGROV-1 20.4 µM | MDA-MB-435 6.9 µM | PC-3 16.5 µM | MDA-N 18.8 µM

COc1cc(S(=O)(=O)Nc2ccc(-c3csc(N4C(=O)C(Cl)C4c4ccccc4O)n3)cc2)ccc1Cl (stereo not drawn)
inactive: HL-60 21.8 µM | EKVX 15.4 µM | OVCAR-5 47.8 µM | 786-0 35.1 µM | HOP-62 > 100 µM | SNB-75 62.7 µM | BT-549 29 µM | Malme-3M 24.1 µM | RPMI-8226 23.2 µM | LOX IMVI 1.49 µM | SK-MEL-5 37.1 µM | HCC 2998 15.1 µM | OVCAR-3 > 100 µM | IGROV-1 11.9 µM | MDA-MB-435 31.4 µM | PC-3 42.3 µM | MDA-N 27.5 µM | KM12 33 µM

CC/C=C/C[C@H](O)[C@H]1C[C@H]2O[C@H](CC(=O)OC)C[C@H]2O1
inactive: HL-60 > 100 µM | EKVX > 100 µM | U-251 > 100 µM | OVCAR-5 > 100 µM | 786-0 > 100 µM | HOP-62 > 100 µM | SNB-75 > 100 µM | BT-549 > 100 µM | Malme-3M > 100 µM | RPMI-8226 > 100 µM | LOX IMVI > 100 µM | SK-MEL-5 > 100 µM | HCC 2998 > 100 µM | OVCAR-3 > 100 µM | IGROV-1 > 100 µM | MDA-MB-435 > 100 µM | PC-3 > 100 µM | MDA-N > 100 µM | KM12 > 100 µM
